Data on one compound can be found in patent US5462861A, “Method for improving enzyme activities with noble gases” (American Air Liquide, Chicago Research Center, priority 1993, dated 1995).

In one experiment the test system is lyase enzymes. The experiment can be described thus: Lyases, effects for the class. It is filed as biochemical. How it is done: (§1) Solution preparation: Optimized w/v solutions are prepared by diluting the enzyme (units/ml) and the substrate (μg/ml) in appropriate buffer (optimized pH and molarity for enzymes). The solutions are used for gas experiments at once to avoid loss of activity. Various enzyme and substrate concentrations and inhibitors may be employed. Physical parameters are varied as required.
(§2) Preparation of samples: Cuvets are filled with 2 ml of substrate solution by means of a gas-tight syringe. Gas-tight serum vials are filled with enzyme and solvent. Sufficient gas is consecutively bubbled in the cuvets and serum vials, with a 1-hr wait between injections to maximize equilibration of gas. […] The amount of gas used has been measured sufficient to saturate the solution required.
(§3) Spectrophotometric time-drive, reaction rate, and kinetic analyses: cuvets and serum vials are saturated with gas 40 minutes before the run. […] Changes in the rate or final equilibrium of the reaction versus ambient air are recorded. […]
(§4) In a complete experiment, an enzyme at optimal pH and buffering salt concentration is reacted with 5 substrate concentrations in solution with noble gas at 1 atm. […] The reaction is monitored colorimetrically in a scanning spectrophotometer in real time, and the signals are treated mathematically to obtain rate and yield differences. […]

Experiment [1] concerns the target Gamma-glutamyl transpeptidase (Homo sapiens, UniProt P19440). Description: Gamma-glutamyl transpeptidase activity under gas. The class given is biochemical. How it is done: as §1
(§5) Preparation of samples: Cuvets are filled with 2 ml of substrate solution by means of a gas-tight syringe. Gas-tight serum vials are filled with enzyme and solvent. Sufficient gas is consecutively bubbled in the cuvets and serum vials, with a 1-hr wait between injections to maximize equilibration of gas. All syringes and dead spaces are purged before filling with the appropriate gas. The amount of gas used has been measured sufficient to saturate the solution required.
(§6) Spectrophotometric time-drive, reaction rate, and kinetic analyses: cuvets and serum vials are saturated with gas 40 minutes before the run. A gas-filled syringe is used to retrieve 0.5 ml of enzyme solution to avoid air contact. The 0.5 ml syringe injections of enzyme are made simultaneously to effect a common starting time to for the samples. 7 gases (air, O2, N2, Ne, Ar, Kr, Xe) are run at various temperatures each (from 0° to 60° ). Changes in the rate or final equilibrium of the reaction versus ambient air are recorded. Comparison is also made with added oxygen, and with deoxygenation. Some samples are also prepared under pressure.
In a complete experiment, an enzyme at optimal pH and buffering salt concentration is reacted with 5 substrate concentrations in solution with noble gas at 1 atm. […] Controls are also run after evacuation of solution by vacuum. The reaction is monitored colorimetrically in a scanning spectrophotometer in real time, and the signals are treated mathematically to obtain rate and yield differences. Sample numbers are constant and sufficient to ensure significance of results. All parameters are independently controlled and measured, and more complex experiments are occasionally carried out.

A further experiment relates to isomerase enzymes. The experiment can be described thus: Isomerases, effects for the class. The class given is biochemical. How it is done: as §1, §2, §3, §4
Another experiment relates to Tyrosinase. Description: Tyrosinase-L-tyrosine reaction, solution saturated with gas. The class given is biochemical, Mushroom. How it is done:
as §1, §5, §6
1. Solution preparation: 10% w/v solutions are prepared by diluting the enzyme (units/ml) and the substrate (μg/ml) in Sodium Phosphate buffer (pH 6.85, optimized pH for enzymes). The solutions are stored in refrigerator (0°-5° C.) and used for gas experiments within 2 or 3 days to avoid loss of activity.
6. Preparation of run samples: Acrylic cuvets are filled with 2 ml of substrate solution by means of a gas tight syringe. Gastight serum vials are filled with enzyme. 3×10 cc of gas are consecutively bubbled in the cuvets and serum vials, with a […] between injections. This represents a 10× displacement of dead volume while maximizing equilibration of gas. All syringes and dead spaces are purged before filling with the appropriate gas. After the third 10 cc injection, the cuvets and serum vials are left overnight under two 10 cc syringes filled with the appropriate gas in refrigerator at 0°-5° C.
8. Spectrophotometric runs: The cuvets and serum vials are filled with 10 cc of gas 40 min before the run. A gas-filled syringe is used to retrieve 0.5 ml of enzyme solution to avoid air contact. The 0.5 ml syringe injections of enzyme are made simultaneously to effect a common starting time t0 for the samples. Seven gases (air, O2, N2, Ne, Ar, Kr, Xe) are run at five temperatures each (15° C., 20° C., 25° C., 30° C., 35° C.). Changes in the rate or final equilibrium of the reaction versus ambient air are recorded.
The optimal conditions are [E]/[S] (100 μg/ml)/(100 μg/ml), the changes in absorbance being observed at 305 nm.
3×10 cc of gas are bubbled in the silicone-sealed cuvets and serum vials (T-3754, T-7755), with an interval of 20 min (at 0°-5°C.) between each gas injection.
a. The silicone-sealed cuvets are removed from the refrigerator 40 min before the experimental run, filled with 10 cc of gas and left at room temperature (26° C.) under two 10 cc syringes.
The 0.5 ml syringe injections of enzyme are made simultaneously to effect a common starting time t0 for the samples.
200 points, 18 s intervals 1 hr run

The next experiment deals with Glucose oxidase (Aspergillus niger, UniProt P13006). Description: Glucose oxidase activity under gas. It is filed as biochemical. As for the experimental part:
as §1, §5, §6

Another experiment has as its system α-D-glucosidase. Description: α-D-glucosidase activity under gas. The class given is biochemical. How it is done:
Solution preparation: Optimized w/v solutions are prepared by diluting the enzyme (units/ml) and the substrate (μg/ml) in appropriate buffer (optimized pH and molarity for enzymes). The solutions are used for gas experiments at once to avoid loss of activity. Various enzyme and substrate concentrations and inhibitors may be employed. Physical parameters are varied as required. […] Gas-tight serum vials are filled with enzyme and solvent. Sufficient gas is consecutively bubbled in the cuvets and serum vials, with a 1-hr wait between injections to maximize equilibration of gas. All syringes and dead spaces are purged before filling with the appropriate gas. The amount of gas used has been measured sufficient to saturate the solution required. Spectrophotometric time-drive, reaction rate, and kinetic analyses: cuvets and serum vials are saturated with gas 40 minutes before the run. A gas-filled syringe is used to retrieve 0.5 ml of enzyme solution to avoid air contact. […] Changes in the rate or final equilibrium of the reaction versus ambient air are recorded. Comparison is also made with added oxygen, and with deoxygenation. Some samples are also prepared under pressure.

Experiment [2] relates to Aspartate aminotransferase. Description: Aspartate aminotransferase activity under gas. It is filed as biochemical. How it is done:
as §1, §5, §6

Each structure is given as a SMILES string. “Also recorded” adds a separate entry of the source.

Sequence of Gamma-glutamyl transpeptidase (P19440 1-380 limits assumed): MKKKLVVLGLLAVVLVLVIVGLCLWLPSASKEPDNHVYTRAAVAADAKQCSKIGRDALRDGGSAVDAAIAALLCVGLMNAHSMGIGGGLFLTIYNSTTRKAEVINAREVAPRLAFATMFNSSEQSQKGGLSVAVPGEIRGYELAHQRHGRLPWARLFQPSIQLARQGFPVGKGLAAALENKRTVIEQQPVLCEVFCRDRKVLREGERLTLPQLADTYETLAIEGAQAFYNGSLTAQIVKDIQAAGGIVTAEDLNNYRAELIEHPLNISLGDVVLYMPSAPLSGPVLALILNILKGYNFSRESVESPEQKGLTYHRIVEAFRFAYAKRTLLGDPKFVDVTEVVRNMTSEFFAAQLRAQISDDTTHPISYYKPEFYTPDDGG
Sequence of Glucose oxidase (P13006 17-605): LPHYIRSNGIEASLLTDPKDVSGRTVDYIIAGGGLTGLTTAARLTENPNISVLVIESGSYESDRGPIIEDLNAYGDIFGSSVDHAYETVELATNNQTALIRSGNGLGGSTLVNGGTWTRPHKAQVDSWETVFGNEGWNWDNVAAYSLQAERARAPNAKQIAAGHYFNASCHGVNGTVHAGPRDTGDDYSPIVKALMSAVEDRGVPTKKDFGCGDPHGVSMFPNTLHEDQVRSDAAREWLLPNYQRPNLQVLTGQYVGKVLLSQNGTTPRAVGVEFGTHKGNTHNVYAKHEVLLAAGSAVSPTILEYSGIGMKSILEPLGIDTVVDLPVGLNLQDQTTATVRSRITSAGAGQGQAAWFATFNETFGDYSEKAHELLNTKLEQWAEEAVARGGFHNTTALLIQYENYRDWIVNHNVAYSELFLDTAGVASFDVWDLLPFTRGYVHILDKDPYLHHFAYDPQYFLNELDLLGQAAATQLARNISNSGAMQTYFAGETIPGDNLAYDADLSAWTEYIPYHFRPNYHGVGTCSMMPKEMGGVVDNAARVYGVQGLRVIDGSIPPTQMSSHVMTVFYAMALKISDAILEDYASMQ

For `[Ar]` [Ar, argon], the effect on lyases entry with lyase enzymes is “least such effect”. In experiment [1] (FIG. 29), the “effect on α-glutamyltranspeptidase” value was “inhibition”. For the same compound, the effect in experiment [1] (minus = inhibition) is -5%; in the experiment with Tyrosinase (25° C., optimal reaction conditions, simple saturation of solution with gas, minus = inhibition), -60%; on Glucose oxidase (minus = inhibition, dependent upon temperature and substrate concentration), -85.8%; in experiment [2] (minus = inhibition) it was -17%. Further, in the experiment with isomerase enzymes, the effect on isomerases result was “can be induced to inhibit enzyme activity at higher temperatures”. The “effect on tyrosinase-L-tyrosine reaction” value was “slightly inhibits equilibrium” in the experiment on Tyrosinase (15° C.), “effective inhibitors; also recorded: strong inhibition; also recorded: dramatically inhibit; also recorded: better inhibition by argon at 20 °C than neon; also recorded: inhibiting effects” with Tyrosinase (20° C.), “inhibit at a lesser level than the other noble gases; also recorded: less inhibition at 25 °C than neon; also recorded: inhibitory effect” in the experiment with Tyrosinase (25° C.) and “inhibitory effect” with Tyrosinase (30° C.). For the same compound, in the experiment with Tyrosinase (various temperatures), the “effect on rate and final equilibrium of the tyrosinase-L-tyrosine reaction” value is “inhibition; also recorded: surprisingly active at low temperatures”. For the same compound, the “effect on glucose oxidase” value at Glucose oxidase (FIG. 28) is recorded as “inhibition”. Besides, the “effect on α-glucosidase activity” value in the experiment on α-D-glucosidase (60° C., FIG. 43) was “enhanced; also recorded: potent enhancer”. Also, the “effect on α-D-glucosidase” value in the experiment with α-D-glucosidase (FIG. 31) is listed as “enhancement”. The “effect on aspartate aminotransferase” value in experiment [2] (FIG. 30) is on record as “inhibition”.
